Reference: patent publication US10034895B2 (priority 2017, dated 2018)

Key:
[1] = test system: HeLa cells (ATCC CCL-2); experiment: Trypan blue viability study of cultured HeLa cells
Method: (§1) Cells for culture were obtained from the Cell Culture Facility at Duke University. PLLA was microwave synthesized from L-lactic acid as previously reported. Lactic acid concentration was measured by tetrazolium indicator color test strips (Accuvin, LLC, Napa, Calif.) from the reaction of L-lactic acid and […] in the presence of lactate dehydrogenase. All cells were cultured at 37° C. and 5% CO2 in a HERA cell incubator (Kendro Laboratory Products, L.P., Newtown, Conn.). Media for cells was Minimum Essential Media with Earl's salts and L-Glutamine (Gibco, Life Technologies) with 10% fetal bovine serum and non-essential amino acids and sodium pyruvate. Antibiotics for experiment #2 were penicillin/streptomycin and for experiments #3-4 were penicillin/streptomycin/amphotericin B. All drug testing was performed in Costar 6 Well Culture Cluster plates (Corning, Corning, N.Y.). The trypan blue concentration was 0.4%.
(§2) HeLa cells (ATCC CCL-2) were cultured on six well plates. […] The cells were incubated for 12 hours, after which time they were stained with 1 ml trypan blue for two minutes. The media and trypan blue were aspirated from each well, and the cells were then placed under an inverted microscope for photography.

[2] = test system: Normal human fibroblast cells (ATCC CCL-171); experiment: Trypan blue viability study of normal human fibroblast cells; conditions: for cytotoxicity of D-lactic acid dimer compared with L-lactic acid: cultured normal fibroblasts, FIGS. 13-16; for Cell characteristic: cells non-viable (trypan blue): normal fibroblasts, 12 hours
Method: as §1
as §2, with “Normal human fibroblast” for “HeLa”, “CCL-171)” for “CCL-2)”, “subcultured onto” for “cultured on”, “hours” for “hours,”

[3] = Stereocomplex reaction of L-lactic acid + D-lactic acid dimer (tetrazolium L-lactic acid test strips); conditions: room temperature, two minutes
Method: as §1
The reactions were carried out at room temperature and allowed to incubate for two minutes after which 20 microliters were applied to L-lactic acid test strips, and the results were read after two minutes.

[4] = test system: Human retinoblastoma cells (ATCC C-33A); experiment: Trypan blue viability study of human retinoblastoma cells (dose response); conditions: conclusion of Experiment 3
Method: (§3) Cells for culture were obtained from the Cell Culture Facility at Duke University. […] All cells were cultured at 37° C. and 5% CO2 in a HERA cell incubator (Kendro Laboratory Products, L.P., Newtown, Conn.). Media for cells was Minimum Essential Media with Earl's salts and L-Glutamine (Gibco, Life Technologies) with 10% fetal bovine serum and non-essential amino acids and sodium pyruvate. Antibiotics for experiment #2 were penicillin/streptomycin and for experiments #3-4 were penicillin/streptomycin/amphotericin B. All drug testing was performed in Costar 6 Well Culture Cluster plates (Corning, Corning, N.Y.). The trypan blue concentration was 0.4%.
(§4) Human retinoblastoma cells (ATCC C-33A) were cultured in six well plates. […] The cells were incubated for 12 hours after which time they were stained with 1 ml trypan blue for two minutes. The media and trypan blue were aspirated from each well, and the cells were examined with an inverted microscope for photography.

[5] = test system: Human retinoblastoma cells; experiment: as above; conditions: 12 hours
Method: as §3, §4

Row | SMILES | concentration at which cytotoxic when applied to HeLa cells ([1]; HeLa, conclusion of Experiment 2) [µg/mL] | cytotoxicity compared to PLLA ([1]; cultured HeLa cells, FIGS. 2 & 3) | concentration at which selectively cytotoxic when locally applied to cancer cells ([1]; summary over cancer cells (HeLa and retinoblastoma)) [µg/mL] | cytotoxicity of D-lactic acid dimer compared with L-lactic acid [2] | Cell characteristic: cells non-viable (trypan blue) ([2]; 1.50 mg in 1 ml media) [% cells non-viable] | Cell characteristic: cells non-viable (trypan blue) ([2]; 12.5 mg in 1 ml media) [% cells non-viable] | Cell characteristic: cells non-viable (trypan blue) ([2]; 25 mg in 1 ml media) [% cells non-viable] | Tetrazolium indicator (L-lactic acid remaining) ([3]; 0.5 mg dimer in 40 microliters of 10 mM L-lactic acid) [mg/L] | Tetrazolium indicator (L-lactic acid remaining) ([3]; 1.0 mg dimer in 40 microliters of 10 mM L-lactic acid) | Tetrazolium indicator (L-lactic acid remaining) ([3]; 5.0 mg dimer in 40 microliters of 10 mM L-lactic acid) | Tetrazolium indicator (L-lactic acid remaining) ([3]; 7.0 mg dimer in 40 microliters of 10 mM L-lactic acid) | effective cytotoxic dose / concentration on human retinoblastoma cells [4] | Trypan blue staining for non-viable cells ([5]; 6.25 mg in 1 ml media) | Trypan blue staining for non-viable cells ([5]; 25 mg in 1 ml media)
1 | C[C@@H](O)C(=O)O[C@H](C)C(=O)O [D-lactic acid dimer] | ≥ 5000 | more cytotoxic than a mixture of PLLA oligomers | 5000 to 6250 | less cytotoxic on a molar basis than L-lactic acid | 0 | 100 | 100 | 80 | no color change | no color change | no color change | greater than 6.25 mg/ml | Thirty | Fifty
2 | C[C@H](O)C(=O)O [L-lactic acid, reference compound] |  |  |  | more cytotoxic than D-lactic acid dimer |  |  |  |  |  |  |  |  |  | 
